What was measured:
U-698-M = details: B-Cell Non-Hodgkin's Lymphoma
Method in brief: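 In 1536-well plates, cancer cell lines in 7.5 μl DMEM/F12 or RPMI with 10% FBS spent 24 hours at 37°C and 5% CO2 and were then dosed for 72 hours with final DMSO typically 0.2%. Viability was read by CellTiter-Glo 2.0 luminescence and scaled between blank-well and DMSO-well means. The single-agent IC50 was fitted from dose responses using a logistic curve in a non-linear mixed effects model, and that logistic curve had two parameters.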

[1] = tested on: COLO-320-HSR (Colorectal Carcinoma); test: Bliss excess, mean over the matrix (fraction); higher = more synergy
Method in brief: (§1)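 Cell lines in DMEM/F12 or RPMI with 10% FBS were plated in 1536-well plates, held 24 hours at 37°C, 5% CO2, then given two-drug dose matrices for 72 hours (DMSO typically 0.2%). Viability was read by CellTiter-Glo 2.0 luminescence and scaled as inhibition from 0 (vehicle wells) to 1 (blank wells). Combination Emax is the second-highest inhibition in the matrix; Bliss excess is observed combination effect minus expected EA + EB − EA·EB, EA and EB being single-agent effects.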

[2] = tested on: CCK-81 (Colorectal Carcinoma); test: as above
Method in brief: as §1

[3] = tested on: ECC10 (Gastric Carcinoma); test: as above
Method in brief: as §1

U-2-OS (Osteosarcoma) [4] = test: as above
Method in brief: as §1

[5] = tested on: VCaP (Prostate Carcinoma); test: as above
Method in brief: as §1

[6] = tested on: NCI-H1666 (Lung Adenocarcinoma); test: as above
Method in brief: as §1

NY (Osteosarcoma) [7] = test: as above
Method in brief: as §1

[8] = tested on: NCI-H1581 (Non-Small Cell Lung Carcinoma); test: as above
Method in brief: as §1

[9] = tested on: NCI-H64 (Small Cell Lung Carcinoma); test: as above
Method in brief: as §1

[10] = tested on: PANC-10-05 (Pancreatic Carcinoma); test: as above
Method in brief: as §1

[11] = tested on: ONS-76 (Other Solid Carcinomas); test: as above
Method in brief: as §1

[12] = tested on: TT (Thyroid Gland Carcinoma); test: as above
Method in brief: as §1

FU97 (Gastric Carcinoma) [13] = test: as above
Method in brief: as §1

[14] = tested on: NCI-H2066 (Squamous Cell Lung Carcinoma); test: as above
Method in brief: as §1

[15] = tested on: BICR22 (Oral Cavity Carcinoma); test: as above
Method in brief: as §1

IGR-37 (Melanoma) [16] = test: as above
Method in brief: as §1

[17] = tested on: KARPAS-422 (B-Cell Non-Hodgkin's Lymphoma); test: as above
Method in brief: as §1

[18] = tested on: CAPAN-2 (Pancreatic Carcinoma); test: as above
Method in brief: as §1

[19] = tested on: COLO-320-HSR (Colorectal Carcinoma); test: combination Emax (second highest fraction inhibited in the dose matrix, 72 h); higher = more inhibition; extreme values may be limits of the assay
Method in brief: as §1

[20] = tested on: CCK-81 (Colorectal Carcinoma); test: as above
Method in brief: as §1

[21] = tested on: ECC10 (Gastric Carcinoma); test: as above
Method in brief: as §1

U-2-OS (Osteosarcoma) [22] = test: as above
Method in brief: as §1

[23] = tested on: VCaP (Prostate Carcinoma); test: as above
Method in brief: as §1

[24] = tested on: NCI-H1666 (Lung Adenocarcinoma); test: as above
Method in brief: as §1

NY (Osteosarcoma) [25] = test: as above
Method in brief: as §1

[26] = tested on: NCI-H1581 (Non-Small Cell Lung Carcinoma); test: as above
Method in brief: as §1

[27] = tested on: NCI-H64 (Small Cell Lung Carcinoma); test: as above
Method in brief: as §1

[28] = tested on: PANC-10-05 (Pancreatic Carcinoma); test: as above
Method in brief: as §1

[29] = tested on: ONS-76 (Other Solid Carcinomas); test: as above
Method in brief: as §1

[30] = tested on: TT (Thyroid Gland Carcinoma); test: as above
Method in brief: as §1

FU97 (Gastric Carcinoma) [31] = test: as above
Method in brief: as §1

[32] = tested on: NCI-H2066 (Squamous Cell Lung Carcinoma); test: as above
Method in brief: as §1

[33] = tested on: BICR22 (Oral Cavity Carcinoma); test: as above
Method in brief: as §1

IGR-37 (Melanoma) [34] = test: as above
Method in brief: as §1

[35] = tested on: KARPAS-422 (B-Cell Non-Hodgkin's Lymphoma); test: as above
Method in brief: as §1

[36] = tested on: CAPAN-2 (Pancreatic Carcinoma); test: as above
Method in brief: as §1
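Wherever Bliss excess, mean over the matrix is given: after 72 h of two-drug dosing.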

## O=C(Nc1ccc2[nH]nc(-c3ccncc3)c2c1)[C@@H]1CCN(CC(=O)N2CCN(c3ccc(-c4ncccn4)cc3)CC2)C1
U-698-M; max 5 µM
  IC50, cell viability 72 h: > 5000 nM

## O=c1[nH]cc(F)c(=O)[nH]1 [5-Fluorouracil]
U-698-M; max 20 µM
  IC50, cell viability 72 h: > 20000 nM

## CN(C)CCCOc1ccc(-c2ccc3ncc4c(c3c2)n(C2CCOCC2)c(=O)n4C)cn1 [AZD0156]
U-698-M; max 3 µM
  IC50, cell viability 72 h: > 3000 nM

## CC(C)n1c(=O)n(C)c2cnc3cc(F)c(-c4ccc(OCCCN5CCCCC5)nc4)cc3c21 [AZD1390]
U-698-M; max 0.3 µM
  IC50, cell viability 72 h: > 300 nM

## C=CCn1c(=O)c2cnc(Nc3ccc(N4CCN(C)CC4)cc3)nc2n1-c1cccc(C(C)(C)O)n1 [AZD1775]
U-698-M; max 3 µM
  IC50, cell viability 72 h: 260 nM

## CCN(CCO)CCCOc1ccc2c(Nc3cc(CC(=O)Nc4cccc(F)c4)[nH]n3)ncnc2c1 [AZD2811]
U-698-M; max 1 µM
  IC50, cell viability 72 h: > 1000 nM

## CN(CCO)CC[C@H](CSc1ccccc1)Nc1ccc(S(=O)(=O)NC(=O)c2ccc(N3CCC([C@@H](O)c4ccccc4-c4ccc(Cl)cc4)CC3)cc2)cc1S(=O)(=O)C(F)(F)F [AZD4320]
U-698-M; max 1 µM
  IC50, cell viability 72 h: > 1000 nM

## COc1nnc2ccc(N3CCC(c4ccc(OCCN5CCN(C)C(=O)[C@H]5C)cc4)CC3)nn12 [AZD5153]
U-698-M; max 1 µM
  IC50, cell viability 72 h: 265 nM

## NC1(C(=O)N[C@@H](CCO)c2ccc(Cl)cc2)CCN(c2ncnc3[nH]ccc23)CC1 [AZD5363]
U-698-M; max 10 µM
  IC50, cell viability 72 h: 8270 nM

## Cc1c2c(nn1C)CSCc1cc(n(C)n1)CSc1cc(c3ccccc3c1)OCCCc1c(C(=O)O)n(C)c3c-2c(Cl)ccc13 [AZD5991]
U-698-M; max 1 µM
  IC50, cell viability 72 h: 69.2 nM

## C[C@@H]1COCCN1c1cc(C2([S@](C)(=N)=O)CC2)nc(-c2ccnc3[nH]ccc23)n1 [AZD6738]
U-698-M; max 10 µM
  IC50, cell viability 72 h: 2210 nM

## Cc1cc2ncnn2cc1Nc1ncc2c(n1)n(C1CCOCC1)c(=O)n2C [AZD7648]
U-698-M; max 10 µM
  IC50, cell viability 72 h: > 10000 nM

## N#Cc1cnc(Nc2cc(NC[C@H]3CNCCO3)c(C(F)(F)F)cn2)cn1 [SRA737] + C=CCn1c(=O)c2cnc(Nc3ccc(N4CCN(C)CC4)cc3)nc2n1-c1cccc(C(C)(C)O)n1 [AZD1775] (first compound max 10 µM, partner max 1 µM)
[1]
  Bliss excess: 0.116
[2]
  Bliss excess: 0.0173
[3]
  Bliss excess: 0.0773
U-2-OS (Osteosarcoma) [4]
  Bliss excess: 0.0962
[5]
  Bliss excess: 0.0327
[6]
  Bliss excess: -0.0345
NY (Osteosarcoma) [7]
  Bliss excess: 0.0355
[8]
  Bliss excess: 0.0425
[9]
  Bliss excess: 0.0534
[10]
  Bliss excess: -0.101
[11]
  Bliss excess: 0.11
[12]
  Bliss excess: 0.0428
FU97 (Gastric Carcinoma) [13]
  Bliss excess: 0.0097
[14]
  Bliss excess: 0.0147
[15]
  Bliss excess: 0.177
IGR-37 (Melanoma) [16]
  Bliss excess: 0.0182
[17]
  Bliss excess: 0.0952
[18]
  Bliss excess: -0.0431
[19]
  combination Emax: 0.706
[20]
  combination Emax: 0.916
[21]
  combination Emax: 0.823
U-2-OS (Osteosarcoma) [22]
  combination Emax: 0.877
[23]
  combination Emax: 0.66
[24]
  combination Emax: 0.253
NY (Osteosarcoma) [25]
  combination Emax: 0.673
[26]
  combination Emax: 0.67
[27]
  combination Emax: 0.865
[28]
  combination Emax: 0.42
[29]
  combination Emax: 0.824
[30]
  combination Emax: 0.352
FU97 (Gastric Carcinoma) [31]
  combination Emax: 0.366
[32]
  combination Emax: 0.426
[33]
  combination Emax: 0.836
IGR-37 (Melanoma) [34]
  combination Emax: 0.789
[35]
  combination Emax: 0.817
[36]
  combination Emax: 0.306

## N#Cc1cnc(Nc2cc(NC[C@H]3CNCCO3)c(C(F)(F)F)cn2)cn1 [SRA737] + Nc1ccn([C@@H]2O[C@H](CO)[C@@H](O)C2(F)F)c(=O)n1 [Gemcitabine] (first compound max 10 µM, 7x7, partner max 0.3 µM)
[1]
  Bliss excess: 0.0911
[2]
  Bliss excess: -0.0976
[3]
  Bliss excess: 0.0624
U-2-OS (Osteosarcoma) [4]
  Bliss excess: 0.051
[5]
  Bliss excess: -0.0259
[6]
  Bliss excess: 0.0128
NY (Osteosarcoma) [7]
  Bliss excess: -0.0439
[8]
  Bliss excess: 0.176
[9]
  Bliss excess: 0.0476
[10]
  Bliss excess: 0.0598
[11]
  Bliss excess: -0.0843
[12]
  Bliss excess: -0.0551
FU97 (Gastric Carcinoma) [13]
  Bliss excess: -0.0494
[14]
  Bliss excess: -0.0332
[15]
  Bliss excess: 0.0636
IGR-37 (Melanoma) [16]
  Bliss excess: -0.09
[17]
  Bliss excess: 0.0409
[18]
  Bliss excess: 0.0141
[19]
  combination Emax: 0.815
[20]
  combination Emax: 0.859
[21]
  combination Emax: 0.859
U-2-OS (Osteosarcoma) [22]
  combination Emax: 0.829
[23]
  combination Emax: 0.77
[24]
  combination Emax: 0.54
NY (Osteosarcoma) [25]
  combination Emax: 0.808
[26]
  combination Emax: 0.957
[27]
  combination Emax: 0.863
[28]
  combination Emax: 0.584
[29]
  combination Emax: 0.811
[30]
  combination Emax: 0.469
FU97 (Gastric Carcinoma) [31]
  combination Emax: 0.318
[32]
  combination Emax: 0.208
[33]
  combination Emax: 0.946
IGR-37 (Melanoma) [34]
  combination Emax: 0.782
[35]
  combination Emax: 0.852
[36]
  combination Emax: 0.319

Reference: the supplement of paper PMC11061612
